From patent EP0943615A1, “1,4-DIHYDROPYRIDINE DERIVATIVES” (Nikken Chemicals Company, Limited, priority 1996, dated 1998)
Several values for one entry are separate records, joined by “and”; a condition that tells them apart may be missing. Equal values may be shown once.

Assays:
VJ-300 cells [1] = assay: In vitro test of action suppressing proliferation of cancer cells, combined administration of doxorubicin (colony formation), resistant cells; type: cell-based, Human; conditions: ADM alone or ADM + test compound 1 µg/ml, LD50 of ADM relative to ADM alone in KB cells = 1, 7 days incubation, colony count
Method: Human rhinopharynx cancer derived KB cells (i.e., sensitive cells) and their multi-drug resistant clone VJ-300 cells (i.e., resistant cells) were used as the test cells. As the incubation solutions, use was made of 10% fetal calf serum (Flow Laboratories) and Eagle MEM medium (Nissui Seiyaku) containing 0.292 mg/ml of L-glutamine (Flow Laboratories). The tests of the action for overcoming resistance to anti-cancer drugs or action for increasing the effect of the anti-cancer drug with the combined administration of the anti-cancer drug doxorubicin (i.e., adriamycin, ADM) and the test compound were performed as follows:
The test cells were suspended in incubation solutions and adjusted to a cell density of about 200 cells/ml. The cell suspensions were injected in 2 ml amounts into petri dishes and were incubated in a CO2 gas incubator (5% CO2, 95% air) at 37°C for 24 hours. Then, 5 µl of a predetermined concentration of the aqueous ADM solution and a predetermined concentration of a DMSO solution of the test compound were added, then the incubation was continued for a further 7 days. After the end of the incubation, the result was immobilized with methanol, Giemsa stained and measured for the number of colonies per dish. The results were used to prepare a volume-reaction curve. […] The results are shown in Table 8 to Table 10 using the concentration of LD50 of ADM in the ADM alone group by KB cells as the resistance degree 1 and calculating the resistances of the following LD50 concentrations as relative ratios. […]

[2] = tested on: VCR resistant murine leukemia (P388/VCR) cells; assay: In vivo test: overcoming resistance to vincristine in VCR resistant murine leukemia cell bearing mice; design: species or system CDF1 male mice; conditions: P388/VCR bearing CDF1 mice, VCR 100 µg/kg alone or with compound 100 mg/kg, intraperitoneally for 5 days; for Effect of overcoming resistance T/V (%): T/C of combination over T/C of VCR alone x 100; for Rate of prolongation of life T/C (%): with respect to controls
Method: 10^6 VCR resistant murine leukemia (P388/VCR) cells were transplanted intraperitoneally into groups of six CDF1 male mice, then the compound of the present invention (100 mg/kg) and VCR (100 µg/kg) were administered intraperitoneally for 5 days. […] Effect of overcoming resistance to anti-cancer drug (T/V) % = [(Rate of prolongation of life using VCR and present compound (T/C))/(Rate of prolongation of life using VCR alone (T/C))] x 100 [formula]

Acute toxicity test = conditions: mouse, in vivo, ip; ddY male mice, intraperitoneally, suspended in 0.5% CMC-Na with 0.1% Tween 80, observed up until 7 days
Method: • Animals used: ddY male mice (SLC Japan), 4-5 weeks old, three to five mice per group. • Test method: The compound of the present invention was suspended in 0.5% sodium carboxymethylcellulose (CMC-Na) containing 0.1% Tween 80. It was administered to the mice intraperitoneally in amounts from 1000 mg/kg to 250 mg/kg in groups of three to five mice until no more deaths were observed. The survival of the animals was observed up until 7 days after administration.

VJ-300 cells [3] = assay: In vitro test of action suppressing proliferation of cancer cells, combined administration of vincristine, resistant cells; type: cell-based, Human; conditions: VCR alone or VCR + test compound 1 µg/ml, LD50 of VCR relative to VCR alone in KB cells = 1
Method: As the incubation solutions, use was made of 10% fetal calf serum (Flow Laboratories) and Eagle MEM medium (Nissui Seiyaku) containing 0.292 mg/ml of L-glutamine (Flow Laboratories). The tests of the action for overcoming resistance to anti-cancer drugs or action for increasing the effect of the anti-cancer drug with the combined administration of the anti-cancer drug doxorubicin (i.e., adriamycin, ADM) and the test compound were performed as follows:
The test cells were suspended in incubation solutions and adjusted to a cell density of about 200 cells/ml. The cell suspensions were injected in 2 ml amounts into petri dishes and were incubated in a CO2 gas incubator (5% CO2, 95% air) at 37°C for 24 hours. Then, 5 µl of a predetermined concentration of the aqueous ADM solution and a predetermined concentration of a DMSO solution of the test compound were added, then the incubation was continued for a further 7 days. After the end of the incubation, the result was immobilized with methanol, Giemsa stained and measured for the number of colonies per dish. The results were used to prepare a volume-reaction curve. […] The results are shown in Table 8 to Table 10 using the concentration of LD50 of ADM in the ADM alone group by KB cells as the resistance degree 1 and calculating the resistances of the following LD50 concentrations as relative ratios.
The same method as in Test Example 1 was used to test the action of vincristine (VCR) on anti-cancer drugs, prepare a volume-reaction curve, and calculate the resistances.

| Structure (SMILES) | Degree of resistance for ADM VJ-300 (VJ-300 cells [1]) | Average days of survival [2] | Effect of overcoming resistance T/V (%) [2] [%] | Rate of prolongation of life T/C (%) [2] [%] | LD50 at 168 h (Acute toxicity test) [mg/kg] | further results |
| --- | --- | --- | --- | --- | --- | --- |
| CCOC(=O)C1=C(c2ccc(-n3c(C)nc4ncccc43)cc2)NC(C)=C(C(=O)OCCCc2cccnc2)C1C(C)C (stereo not drawn) [Compound 1, 4-isopropyl-6-methyl-2-[4-(2-methylimidazo[4,5-b]pyridin-1-yl)phenyl]-1,4-dihydropyridin-3,5-dicarboxylate 3-ethylester, 5-[3-(3-pyridyl)propyl]ester] | 2.4 | 12.8 | 113 | 108 | > 1000 |  |
| CCCCCC1C(C(=O)OCCCc2cccnc2)=C(C)NC(c2cccnc2)=C1C(=O)OCC (stereo not drawn) [Compound 16, 6-methyl-4-pentyl-2-(3-pyridyl)-1,4-dihydropyridin-3,5-dicarboxylate 3-ethylester, 5-[3-(3-pyridyl)propyl]ester] | 3.0 | 16.2 | 143 | 137 | > 1000 |  |
| CCCCCC1C(C(=O)OC/C=C/c2cccnc2)=C(C)NC(c2ccc(-n3c(C)nc4cnccc43)cc2)=C1C(=O)OCC (stereo not drawn) [Compound 23, 6-methyl-2-[4-(2-methylimidazo[4,5-c]pyridin-1-yl)phenyl]-4-pentyl-1,4-dihydropyridin-3,5-dicarboxylate 3-ethylester, 5-[(E)-3-(3-pyridyl)-2-propenyl]ester] | 1.2 | 13.5 | 138 | 142 | > 1000 |  |
| CCOC(=O)C1=C(c2ccc(-n3c(C)nc4cnccc43)cc2)NC(C)=C(C(=O)OC/C=C/c2cccnc2)C1CCc1ccccc1 (stereo not drawn) [Compound 24, 6-methyl-2-[4-(2-methylimidazo[4,5-c]pyridin-1-yl)phenyl]-4-(2-phenyl)ethyl-1,4-dihydropyridin-3,5-dicarboxylate 3-ethylester, 5-[(E)-3-(3-pyridyl)-2-propenyl]ester] | 1.1 | 13.3 | 136 | 140 | > 1000 |  |
| CCOC(=O)C1=C(c2ccc(-n3ccnc3)cc2)NC(C)=C(C(=O)OC/C=C/c2cccnc2)C1/C=C/c1ccccc1 (stereo not drawn) [Compound 33, 2-[4-(1-imidazolyl)phenyl]-6-methyl-4-[(E)-2-phenylethenyl]-1,4-dihydropyridin-3,5-dicarboxylate 3-ethylester, 5-[(E)-3-(3-pyridyl)-2-propenyl)ester] | 1.4 |  |  |  | > 1000 |  |
| COC(=O)C1=C(c2ccc(-n3c(C)nc4cnccc43)cc2)NC(C)=C(C(=O)OC/C=C/c2cccnc2)C1/C=C/c1ccccc1 (stereo not drawn) [Compound 42, 6-methyl-2-[4-(2-methylimidazo[4,5-c]pyridin-1-yl)phenyl]-4-[(E)-2-phenylethenyl]-1,4-dihydropyridin-3,5-dicarboxylate 3-methylester, 5-[(E)-3-(3-pyridyl)-2-propenyl]ester] | 2.1 |  |  |  |  |  |
| CCOC(=O)C1=C(c2ccc(-n3ccnc3)cc2)NC(C)=C(C(=O)OCCCc2cccnc2)C1/C=C/c1ccccc1 (stereo not drawn) [Compound 43, 2-[4-(1-imidazolyl)phenyl]-6-methyl-4-[(E)-2-phenylethenyl]-1,4-dihydropyridin-3,5-dicarboxylate 3-ethylester, 5-[3-(3-pyridyl)propyl]ester] | 1.4 | 13.4 | 137 | 141 |  |  |
| CCCCCC1C(C(=O)OCCCc2cccnc2)=C(C)NC(c2ccc(-n3ccnc3)cc2)=C1C(=O)OCC (stereo not drawn) [Compound 44, 2-[4-(1-imidazolyl)phenyl]-6-methyl-4-pentyl-1,4-dihydropyridin-3,5-dicarboxylate 3-ethylester, 5-[3-(3-pyridyl)propyl]-ester] | 1.4 |  |  |  |  |  |
| CCOC(=O)C1=C(c2ccc(-n3c(C)nc4cnccc43)cc2)NC(C)=C(C(=O)OCCCC(=O)c2cccnc2)C1CCCC1CCCCC1 (stereo not drawn) [Compound 45, 4-(3-cyclohexylpropyl)-6-methyl-2-[4-(2-methylimidazo[4,5-c]pyridin-1-yl)phenyl]-1,4-dihydropyridin-3,5-dicarboxylate 3-ethylester, 5-(3-nicotinoylpropyl)ester] | 2.6 |  |  |  |  |  |
| CCOC(=O)C1=C(c2ccc(-n3c(C)nc4cnccc43)cc2)NC(C)=C(C(=O)OCCCC(=O)c2cccnc2)C1C=C1CCCCC1 (stereo not drawn) [Compound 46, 4-cyclohexylidenemethyl-6-methyl-2-[4-(2-methylimidazo[4,5-c]pyridin-1-yl)phenyl]-1,4-dihydropyridin-3,5-dicarboxylate 3-ethylester 5-(3-nicotinoylpropyl)ester] | 2.5 |  |  |  |  |  |
| CCOC(=O)C1=C(c2ccc(-n3c(C)nc4cnccc43)cc2)NC(C)=C(C(=O)OCCCC(=O)c2cccnc2)C1/C=C/c1ccccc1 (stereo not drawn) [Compound 47, 6-methyl-2-[4-(2-methylimidazo[4,5-c]pyridin-1-yl)phenyl]-4-[(E)-2-phenylethenyl]-1,4-dihydropyridin-3,5-dicarboxylate 3-ethylester, 5-(3-nicotinoylpropyl)ester] | 1.2 |  |  |  |  |  |
| CCOC(=O)C1=C(c2ccc(-n3cnc4ccccc43)cc2)NC(C)=C(C(=O)OCCCC(=O)c2cccnc2)C1C=C1CCCCC1 (stereo not drawn) [Compound 48, 4-cyclohexylidenemethyl-6-methyl-2-[4-(1-benzimidazolyl)phenyl]-1,4-dihydropyridin-3,5-dicarboxylate 3-ethylester, 5-(3-nicotinoylpropyl)ester] | 1.7 |  |  |  |  |  |
| CC[C@]1(O)C[C@H]2CN(CCc3c([nH]c4ccccc34)[C@@](C(=O)OC)(c3cc4c(cc3OC)N(C=O)[C@H]3[C@@](O)(C(=O)OC)[C@H](OC(C)=O)[C@]5(CC)C=CCN6CC[C@]43[C@@H]65)C2)C1 [VCR, vincristine, reference compound] |  |  | 100 |  |  | Degree of resistance for VCR VJ-300 (VJ-300 cells [3]): 483 - 952; Average days of survival ([2]; 100 mg/kg): 11.3 and 9.8 and 12.3; Rate of prolongation of life T/C (%) ([2]; 100 mg/kg): 96% and 103% and 109% |
